Reference: the supplement of paper PMC4862054

Tests used:
Test in all cases: normalised response (% of control), CellTox Green; higher = less cell death (100 = DMSO, 0 = benzethonium chloride kill control)
Conditions in all cases: incubation time: 72 h
MDA-MB-453 = system: MDA-MB-453
How it was run: (§1)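 After 72 h with compound in 384-well plates, breast cancer cell lines seeded as 20 µl suspension were read for CellTox Green fluorescence at 485/520 nm. CellTiter-Glo luminescence was then read after 10 min at room temperature. Compound was present at 5 concentrations in 10-fold steps over a 10,000-fold range set per compound, and plates were normalised to 0.1 % DMSO (100) and a positive kill control (0). Values are normalised signals, each at a single concentration.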

Hs578T = system: Hs578T
How it was run: as §1

DU-4475 = system: DU-4475
How it was run: as §1

CAL-120 = system: CAL-120
How it was run: as §1

CAL-85-1 = system: CAL-85-1
How it was run: as §1

MDA-MB-231 = system: MDA-MB-231
How it was run: as §1

CAL-51 = system: CAL-51
How it was run: as §1

CAL-148 = system: CAL-148
How it was run: as §1

HCC1143 = system: HCC1143
How it was run: as §1

HDQ-P1 = system: HDQ-P1
How it was run: as §1

HCC1599 = system: HCC1599
How it was run: as §1

HCC1937 = system: HCC1937
How it was run: as §1

MCF-10A = system: MCF-10A
How it was run: as §1

BT-474 = system: BT-474
How it was run: as §1

BT-549 = system: BT-549
How it was run: as §1

MFM-223 = system: MFM-223
How it was run: as §1

MDA-MB-436 = system: MDA-MB-436
How it was run: as §1

MDA-MB-468 = system: MDA-MB-468
How it was run: as §1

SMILES | normalised response (MDA-MB-453) | normalised response (Hs578T) | normalised response (DU-4475) | normalised response (CAL-120) | normalised response (CAL-85-1) | normalised response (MDA-MB-231) | normalised response (CAL-51) | normalised response (CAL-148) | normalised response (HCC1143) | normalised response (HDQ-P1) | normalised response (HCC1599) | normalised response (HCC1937) | normalised response (MCF-10A) | normalised response (BT-474) | normalised response (BT-549) | normalised response (MFM-223) | normalised response (MDA-MB-436) | normalised response (MDA-MB-468)
CC(=O)O[C@@]12CO[C@@H]1C[C@H](O)[C@@]1(C)C(=O)[C@H](O)C3=C(C)[C@@H](OC(=O)[C@H](O)[C@@H](NC(=O)OC(C)(C)C)c4ccccc4)C[C@@](O)([C@@H](OC(=O)c4ccccc4)[C@H]21)C3(C)C [Docetaxel] (100 nM) | 100% | 49.4% | 95.2% | 86.7% | 19.7% | -12.5% | 16.6% | 83.2% | 76% | 75.8% | 82.8% | 102% | 34.9% | 57.1% | 69.3% | 59.5% | 69% | 145%
CC1(C)CNc2cc(NC(=O)c3cccnc3NCc3ccncc3)ccc21 [Motesanib] (10000 nM) | 101% | 86.8% | 101% | 96.7% | 94.5% | 114% | 101% | 102% | 94% | 94.1% | 108% | 98.6% | 80.4% | 98.2% | 103% | 97.2% | 109% | 123%
CC(=O)O[C@@]12CO[C@@H]1C[C@H](O)[C@@]1(C)C(=O)[C@H](O)C3=C(C)[C@@H](OC(=O)[C@H](O)[C@@H](NC(=O)OC(C)(C)C)c4ccccc4)C[C@@](O)([C@@H](OC(=O)c4ccccc4)[C@H]21)C3(C)C [Docetaxel] (1000 nM) | 92.4% | 22.6% | 98.5% | 89.9% | 29.6% | -47.2% | 45.6% | 84.2% | 55.4% | 35.5% | 88.5% | 46.5% | 36.3% | 58.4% | 38.7% | 53.9% | 71.9% | 134%
O=C1CN2Cc3c(ccc(Cl)c3Cl)N=C2N1 [Anagrelide] (10000 nM) | 100% | 100% | 96.3% | 98.9% | 108% | 94.7% | 54.9% | 60.6% | 85.1% | 78.9% | 99% | 106% | 53.2% | 101% | 89.6% | 69.6% | 94.9% | 67%
Nc1nc2[nH]cnc2c(=S)[nH]1 [Thioguanine] (10000 nM) | 97.6% | 133% | 91.9% | 97.7% | 97.4% | 85.2% | 80.3% | 92.2% | 106% | 101% | 96.2% | 83.7% | 108% | 103% | 87% | 103% | 93.2% | 51.8%
Cc1sc2c(c1C)C(c1ccc(Cl)cc1)=N[C@@H](CC(=O)OC(C)(C)C)c1nnc(C)n1-2 [(+)JQ1] (1000 nM) | 104% | 98.9% | 88.2% | 87.5% | 64.5% | 131% | 90.6% | 67.3% | -3.05% | 83.5% | 95.5% | 59.3% | 108% | 94.4% | 97.4% | 98.1% | 66.8% | 85.6%
CC(C)(C)c1cnc(CSc2cnc(NC(=O)C3CCNCC3)s2)o1 [SNS-032] (1000 nM) | 99.2% | 25% | 86.1% | 88.6% | 17.1% | -97.4% | 55.9% | 96.3% | 86.3% | 62.6% | 71.2% | 115% | 24% | 90% | 80.4% | 63.5% | 102% | 84%
Oc1ncnc2[nH]ncc12 [Allopurinol] (10000 nM) | 75.7% | 70.8% | 98.6% | 101% | 83.4% | 108% | 116% | 98% | 117% | 108% | 102% | 76% | 102% | 104% | 89.5% | 94.1% | 99.7% | 79%
